Reference: EP4790066A1, “GLP-1R/GIPR/GCGR TRIPLE AGONIST ANALOGUE AND USE THEREOF” (Shenzhen Bay Laboratory, priority 2023, dated 2025)
*1 amine or outer side, *2 acyl side, *3 side chain or, on linkers, in order; H or OH if unused. Where a SMILES comes first, the peptide text is derived from it. Bridges are numbered along the chain shown (N, C = ends). [ ]: non-standard residue; d: D form. X1 = O=C(O)CCCCCCCCCCCCCCCCCCC(=O)N[C@@H](CCCCNC(=O)COCCOCCNC(=O)COCCOCCNC(=O)CCC(=O)N(CCNC(=O)C[*:1])CCNC(=O)C[*:2])C(=O)O; Phe(2-F) = N[C@@H](Cc1ccccc1F)C(=O)O; Iva = CC[C@](C)(N)C(=O)O; Aib = CC(C)(N)C(=O)O

Columns and labels:
Type in all cases: cell-based
GIPR [1] = biological target: T1, GIPR (Homo sapiens, UniProt P48546); assay: CreLuc method (CRE-luciferase reporter), HEK293/pGM-CREB-L-Luc/GIPR pool; conditions: 6 h incubation, read-out: EC50 (pM) for each receptor GIPR
T1 construct: expressed in transfected cells
T1 sequence (P48546 22-466): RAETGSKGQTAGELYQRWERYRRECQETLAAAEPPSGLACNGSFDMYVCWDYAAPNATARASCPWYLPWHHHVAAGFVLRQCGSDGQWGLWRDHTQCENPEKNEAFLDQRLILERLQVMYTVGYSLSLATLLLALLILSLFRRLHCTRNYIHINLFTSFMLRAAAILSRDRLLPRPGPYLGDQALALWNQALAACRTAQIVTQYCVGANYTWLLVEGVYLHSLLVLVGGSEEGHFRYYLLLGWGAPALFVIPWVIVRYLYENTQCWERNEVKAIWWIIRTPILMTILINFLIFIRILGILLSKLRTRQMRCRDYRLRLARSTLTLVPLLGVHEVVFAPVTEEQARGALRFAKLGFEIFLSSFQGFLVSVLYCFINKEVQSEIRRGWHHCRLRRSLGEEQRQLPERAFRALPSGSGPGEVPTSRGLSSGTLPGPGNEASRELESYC
How it was run: (§1)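 Stable HEK293 pools co-expressing each receptor with a CRE-luciferase reporter were plated at 20,000 cells/well in freestyle medium and treated with compound dilution series for 6 h at 37 °C. Luminescence was read with ONE-GLO to derive EC50.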

GCGR [2] = biological target: T2, GCGR (Homo sapiens, UniProt P47871); assay: CreLuc method (CRE-luciferase reporter), 293HEK/pGM-CREB-L-Luc/GCGR pool; conditions: 6 h incubation, read-out: EC50 (pM) for each receptor GCGR
T2 construct: expressed in transfected cells
How it was run: as §1

GLP-1R [3] = biological target: T3, GLP-1R (Homo sapiens, UniProt P43220); assay: CreLuc method (CRE-luciferase reporter), HEK293/pGM-CREB-L-Luc/GLP-1R pool; conditions: 6 h incubation, read-out: EC50 (pM) for each receptor GLP-1R
T3 construct: expressed in transfected cells
How it was run: as §1

GLP-1R [4] = biological target: T3, GLP-1R; assay: cell-based; conditions: for EC50: GLP-1R CreLuc
Description: The steps are as follows:
The stably transfected cell line HEK293/pGM-CREB-L-Luc/GLP-1R pool was constructed. […] The corresponding test cells were selected, digested (for 1 min), dispersed by pipetting, and centrifuged (1000 rpm, 5 min). The culture medium was discarded, and the cells were suspended using Freestyle culture medium, centrifuged and counted. The cells were diluted to a cell density of 5 x 10^5 cells/mL using freestyle culture medium (0% FBS) and culture medium containing 10% FBS, respectively. The cells were then added to the detection wells of a 384-well plate (40 µL/20,000 cells/well). Echo was used to add the corresponding analyte dilution series. The cell plate was incubated at 37°C and 5% CO2 for 6 h, and then ONE-GLO (20 µL/well) was added for detection. It was kept in the dark for 3 min, and then a chemiluminescent microplate reader was used for determination. The plate was read within 30 min, and the determination results were recorded. […]

GIPR [5] = biological target: T1, GIPR; assay: cAMP method (HTRF cAMP detection kit), HEK293/pGM-CREB-L-Luc/GIP pool; conditions: read-out: EC50 (pM) for each receptor GIPR
GLP-1R [6] = biological target: T3, GLP-1R; assay: cAMP method (HTRF cAMP detection kit), HEK293/pGM-CREB-L-Luc/GLP-1 pool; conditions: read-out: EC50 (pM) for each receptor GLP-1R
GCGR [7] = biological target: T2, GCGR; assay: cAMP method (HTRF cAMP detection kit), HEK293/pGM-CREB-L-Luc/GCG pool; conditions: read-out: EC50 (pM) for each receptor GCGR

T3 sequence (P43220 24-463, species assumed): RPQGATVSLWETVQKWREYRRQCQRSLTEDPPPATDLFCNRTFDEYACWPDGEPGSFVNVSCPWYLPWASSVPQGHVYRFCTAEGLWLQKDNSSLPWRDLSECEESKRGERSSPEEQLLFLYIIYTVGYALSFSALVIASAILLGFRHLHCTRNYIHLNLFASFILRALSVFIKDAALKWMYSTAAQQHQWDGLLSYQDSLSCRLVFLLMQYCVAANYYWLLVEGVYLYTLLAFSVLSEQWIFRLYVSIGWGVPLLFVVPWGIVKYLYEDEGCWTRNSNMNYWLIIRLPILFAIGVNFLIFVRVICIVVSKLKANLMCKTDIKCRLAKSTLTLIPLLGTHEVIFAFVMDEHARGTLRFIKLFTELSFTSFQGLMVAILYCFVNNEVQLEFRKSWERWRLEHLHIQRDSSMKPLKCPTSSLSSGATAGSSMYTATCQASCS
T2 sequence (P47871 26-477, species assumed): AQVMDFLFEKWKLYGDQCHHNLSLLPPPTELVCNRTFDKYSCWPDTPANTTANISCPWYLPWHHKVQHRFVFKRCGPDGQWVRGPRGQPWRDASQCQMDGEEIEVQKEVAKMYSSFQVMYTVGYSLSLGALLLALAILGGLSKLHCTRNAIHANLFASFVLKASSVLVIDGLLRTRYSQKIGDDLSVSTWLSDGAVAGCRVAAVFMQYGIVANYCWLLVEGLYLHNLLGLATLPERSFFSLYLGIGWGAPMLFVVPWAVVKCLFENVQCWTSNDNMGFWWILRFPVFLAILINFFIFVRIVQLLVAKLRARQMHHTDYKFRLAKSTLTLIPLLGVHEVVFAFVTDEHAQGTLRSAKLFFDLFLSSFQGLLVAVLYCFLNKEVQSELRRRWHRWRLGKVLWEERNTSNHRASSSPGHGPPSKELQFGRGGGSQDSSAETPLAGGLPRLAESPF

CC[C@H](C)[C@@H]1NC(=O)[C@H](Cc2ccccc2)NC(=O)[C@@H](NC(=O)C(C)(C)NC(=O)[C@H](CCC(N)=O)NC(=O)[C@H](C)NC(=O)[C@H](CCCCNC(C)=O)NC(=O)[C@H](CCCCN)NC(=O)[C@H](CC(=O)O)NC(=O)[C@H](CC(C)C)NC(=O)[C@](C)(CC)NC(=O)[C@@H](NC(=O)[C@H](CO)NC(=O)[C@H](Cc2ccc(O)cc2)NC(=O)[C@H](CC(=O)O)NC(=O)[C@H](CO)NC(=O)[C@@H](NC(=O)[C@H](Cc2ccccc2F)NC(=O)[C@@H](NC(=O)CNC(=O)[C@H](CCC(N)=O)NC(=O)C(C)(C)NC(=O)[C@@H](N)Cc2ccc(O)cc2)[C@@H](C)O)[C@@H](C)O)[C@@H](C)CC)CSCC(=O)NCCN(C(=O)CCC(=O)NCCOCCOCC(=O)NCCOCCOCC(=O)NCCCC[C@H](NC(=O)CCCCCCCCCCCCCCCCCCC(=O)O)C(=O)O)CCNC(=O)CSC[C@@H](C(=O)NCC(=O)NCC(=O)N2CCC[C@H]2C(=O)N[C@@H](CO)C(=O)N[C@@H](CO)C(=O)NCC(=O)N[C@@H](C)C(=O)N2CCC[C@H]2C(=O)N2CCC[C@H]2C(=O)N2CCC[C@H]2C(=O)N[C@@H](CO)C(N)=O)NC(=O)[C@H](CC(C)C)NC(=O)[C@H](CC(C)C)NC(=O)[C@H](Cc2ccc(O)cc2)NC(=O)[C@H](CCC(=O)O)NC1=O [TG52] (H-Y[Aib]QGT[Phe(2-F)]TSDYSI[Iva]LDKK(Ac)AQ[Aib]CFIEYLLCGGPSSGAPPPS-NH2; linker 21-28 via X1)
EC50 (GIPR [1]): 18.9 pM | EC50 (GCGR [2]): 173 pM | EC50 (GLP-1R [3]): 112 pM | serum albumin binding capacity (GLP-1R [4]): a stronger serum albumin binding capacity | EC50 (GLP-1R [4]; EC50 (pM) 10% FBS, 10% FBS): 861 pM | EC50 (GLP-1R [4]; 0% FBS, read-out: EC50 (pM) 0% FBS): 13.1 pM | EC50 (GIPR [5]): 3.8 pM | EC50 (GLP-1R [6]): 4.1 pM | EC50 (GCGR [7]): 8.8 pM
